Source: patent US20040063787A1, “Vaginal health products” (priority 2002, published 2004)
Entries after “also recorded” stand apart in the source; their conditions may differ.

Columns and labels:
Format in all cases: cell-based, human
ME-180 cells = experiment: Toxicity & proliferation experiments, ME-180 cell counting; details: for effect on ME-180 cell growth: 1 nM, 10 nM, and 100 nM; for ME-180 cell number / cell growth versus no retinoic acid (negative control): 1 μM or 10 μM (micromolar concentrations)
Description: Cell Lines. Human cervical epithelial cells (ME-180, ATCC) were propagated in culture at 37° C. in a 5% CO2 atmosphere in McCoy's 5A media (Invitrogen) with 10% heat-inactivated fetal bovine serum (Invitrogen). All trans-, 9-cis-, and 13-cis-retinoic acids were purchased from ICN Biomedicals. Retinoic acid stock solutions were made up in DMSO.
Toxicity & Proliferation Experiments. Cellular toxicity/proliferation experiments were performed by first washing the ME-180 cells with HBSS, and adding 3 mL of trypsin (0.25%) with EDTA to the T75 flask for 15 minutes. ME-180 cells in trypsin were added to 7 mL of McCoy's 5A media with 10% FBS. ME-180 cells were centrifuged for 5 minutes, and the supernatant was removed. ME-180 cells were resuspended in 10 mL of McCoy's 5A media with 10% FBS for counting. ME-180 cells were centrifuged for 5 minutes, and the supernatant was removed. ME-180 cells were resuspended at 6×10^4 cells per mL (62 mL total volume). One milliliter was added to each of 60 wells in a total of three 24-well plates. ME-180 cells were allowed to adhere to the wells overnight. The media was then removed from the ME-180 cells, and the cells were washed one time with 1 mL of HBSS. One mL of McCoy's 5A media with 10% FBS was added in duplicate on each plate containing the retinoic acids in various concentrations (0-10 μM). ME-180 cells in each plate were counted on day 1, 2, or 3 after the addition of the retinoic acid-containing media.
Cell counting. Media was removed from the ME-180 cells, and the cells were washed one time with 1 mL of HBSS. Trypsin was added (150 μL) to each well for ˜15 minutes to remove cells. One mL of McCoy's 5A media with 10% FBS was added to each well. ME-180 cells were mixed thoroughly and counted using a hemocytometer.
Cell Proliferation of ME-180 Cells. ME-180 cells were incubated with vitamin A derivatives for a period of up to 3 days. ME-180 cells were counted on each day.

[1] = system: estrogen receptor alpha (ER-α) gene; experiment: RT-PCR expression assay of ER-α in ME-180 cells; details: 100 nM, no serum, 4, 8, and 16 hours, FIG. 4 lanes 4-6, listed as vitamin A
Description: (§1) RNA Extraction from ME-180 cells. ME-180 cells were plated at 2×10^5 cells per T25 flask (5 mL total volume) and were allowed to propagate for four days. On day four, the media was removed. […] ME-180 cells were incubated with these solutions for 4, 8, 16, or 24 hours. The media was removed, and 700 μL of lysis buffer was added to the flasks. The cells were scraped off of the flask with a cell scraper. The RNA was isolated using the Ambion RNAqueous kit according to the manufacturer's instructions. Precipitated RNA was resuspended in DEPC-treated water with 1 μL of RNase inhibitor. Total cervical RNA used as a control was purchased from Ambion, Inc.
(§2) Reverse Transcripton of RNA. Approximately 7 μL of RNA was incubated with 3 μL of primer at 80° C. for 10 minutes then immediately placed on ice. A master mix containing 4 μL DEPC water, 4 μL 5× reaction buffer, 1 μL dNTPs, 1 μL of RNase inhibitor, and 1 μL of reverse transcriptase was made for the reactions. Ten μL of master mix was added to the RNA/primer solution and placed at 42° C. for 2 hours. The resulting cDNA was incubated with 3.5 μL of NaOH solution at 70° C. for 10 minutes to hydrolyze the remaining RNA. Five μL of 0.5M Tris/EDTA was added to neutralize the solution. To precipitate the cDNA, 125 μL of 3M NH4OAc, 5 μL of linear polyacrylamide, and 700 μL of absolute ethanol were added. […]

P2Y2 receptor gene = experiment: RT-PCR expression assay of P2Y2 in ME-180 cells; details: 100 nM
Description: (§3) RNA Extraction from ME-180 cells. ME-180 cells were plated at 2×10^5 cells per T25 flask (5 mL total volume) and were allowed to propagate for four days. On day four, the media was removed. Five mL of McCoy's 5A media with 10% FBS containing 0, 10 nM, 100 nM, or 1 μM trans-retinoic acid were added to ME-180 cells in duplicate. ME-180 cells were incubated with these solutions for 4, 8, 16, or 24 hours. The media was removed, and 700 μL of lysis buffer was added to the flasks. The cells were scraped off of the flask with a cell scraper. The RNA was isolated using the Ambion RNAqueous kit according to the manufacturer's instructions. Precipitated RNA was resuspended in DEPC-treated water with 1 μL of RNase inhibitor. Total cervical RNA used as a control was purchased from Ambion, Inc.
as §2, with “solution.” for “solution. To precipitate the cDNA, 125 μL of 3M NH4OAc, 5 μL of linear polyacrylamide, and 700 μL of absolute ethanol were added.”

[2] = system: vascular endothelial growth factor (VEGF); experiment: RT-PCR expression assay of VEGF in ME-180 cells; details: 100 nM, 4, 8, and 16 hours, FIG. 5
Description: as §3
as §2, with “solution.” for “solution. To precipitate the cDNA, 125 μL of 3M NH4OAc, 5 μL of linear polyacrylamide, and 700 μL of absolute ethanol were added.”

mucin-4 (MUC-4) = experiment: RT-PCR expression assay of mucin-4 in ME-180 cells; details: 100 nM, absence of serum
Description: as §1, §2

Row | Structure (SMILES) | toxicity (overall conclusion of the experiments) (ME-180 cells) | growth compared with cells exposed to other agents or to no agents (ME-180 cells; 1 nM to 100 nM, up to 3 days, FIG. 1) | effect on ME-180 cell growth (ME-180 cells; up to 3 days, FIG. 1) | ME-180 cell number / cell growth versus no retinoic acid (negative control) (ME-180 cells; two days, FIG. 2) | ME-180 cell number / cell growth versus no retinoic acid (negative control) (ME-180 cells; two days, FIG. 2, listed as Vitamin A) | ER-α gene expression (PCR product) [1] | P2Y2 expression (PCR product) (P2Y2 receptor gene; in the absence of serum, FIG. 3 lanes 8-11) | P2Y2 expression (PCR product) (P2Y2 receptor gene; in the presence of serum, FIG. 3 lanes 4-6) | VEGF expression (PCR product) [2] | MUC-4 expression (PCR product) (mucin-4 (MUC-4); 4 hours or 8 hours, FIG. 6 lanes 4 and 5) | MUC-4 expression (PCR product) (mucin-4 (MUC-4); 16 hours, FIG. 6 lane 6) | toxicity to ME-180 cells (ME-180 cells; micromolar concentrations) | ME-180 cell growth versus negative control (ME-180 cells; micromolar concentrations, two days, FIG. 2)
1 | CC1=C(/C=C/C(C)=C/C=C/C(C)=C/C(=O)O)C(C)(C)CCC1 [trans-retinoic acid] | nontoxic | growing slightly faster | little effect on cell growth | more cells were present | increases cervical cell growth | the ER-α gene was expressed; also recorded: increase in ER-α expression | increase in P2Y2 expression | increase in P2Y2 expression | increased the expression | detectable | decreases but is still detectable | – | –
2 | CC1=C(/C=C/C(C)=C/C=C/C(C)=C\C(=O)O)C(C)(C)CCC1 [13-cis-retinoic acid] | – | – | little effect on cell growth | – | – | – | – | – | – | – | – | toxic | did not grow as well as the negative control
3 | CC1=C(/C=C/C(C)=C\C=C\C(C)=C\C(=O)O)C(C)(C)CCC1 [9-cis-retinoic acid] | – | – | little effect on cell growth | – | – | – | – | – | – | – | – | – | –
